Patent publication US5322847A, “Azabenzimidazoles in the treatment of asthma, arthritis and related diseases” (Pfizer Inc., priority 1992, dated 1994)

Experiments:
[1] = target: T1, PAF receptor sites on rabbit platelet homogenate (Oryctolagus cuniculus, UniProt G1TEI7); experiment: platelet activating factor (PAF) receptor assay; assay type: binding; conditions: radioligand 3H-PAF; constant used in Ki=(IC50)/[1+(L/Kd)]; 25° C., sodium-free buffer +0.25% BSA; read-out: Kd (dissociation constant)
T1 construct: specific PAF receptor sites on rabbit platelet homogenate; tissue Rockland, Inc., Gilbertsville, Pa; (rabbit blood mixture); host or cells: platelets from blood of normal New Zealand white rabbits, freeze-thawed homogenate
T1 sequence (G1TEI7 1-342): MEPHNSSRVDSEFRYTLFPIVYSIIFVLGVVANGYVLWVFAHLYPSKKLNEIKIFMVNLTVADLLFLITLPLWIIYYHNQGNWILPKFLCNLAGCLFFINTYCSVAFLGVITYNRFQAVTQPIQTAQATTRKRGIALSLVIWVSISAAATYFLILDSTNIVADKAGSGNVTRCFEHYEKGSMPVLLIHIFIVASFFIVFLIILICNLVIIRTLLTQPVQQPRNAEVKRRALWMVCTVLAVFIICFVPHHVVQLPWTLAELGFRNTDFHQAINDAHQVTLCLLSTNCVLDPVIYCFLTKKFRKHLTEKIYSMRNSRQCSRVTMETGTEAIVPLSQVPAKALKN
Excerpt: The platelet activating factor (PAF) receptor assay tests the ability of a compound to compete with radiolabeled PAF for specific PAF receptor sites on rabbit platelet homogenate.
Five hundred milliliters of a rabbit blood mixture is purchased from Rockland, Inc., Gilbertsville, Pa. The blood mixture is 4 parts blood: 1 part 4% sodium citrate (v/v), and is obtained by heart puncture from normal, approximately 8-month old New Zealand white rabbits. The blood mixture is delivered overnight on wet ice (approx. 8° C.).
The blood mixture is centrifuged at 514 g for 10 minutes. The supernatant platelet-rich plasma is gently laid over Ficoll-Paque (Pharmacia) at a ratio of 9 parts plasma:2 parts Ficoll (v/v) The plasma/Ficoll mixture is centrifuged at 856 g for 20 minutes. […] Protein concentration of the suspension is determined by a Bio-Rad assay. […]
The reaction tubes are incubated at 25° C. for 45 minutes. […] The vial is capped, vortexed and counted for 3H.
Percent specific binding is calculated using the formula
Percent specific binding is graphed as a function of compound concentration. […] Alternatively, the IC50 is calculated using the logistic dose-response (Hill plot) option of the VAX Biostat utility. The inhibitory constant (Ki) is calculated by using the formula […]

[2] = test system: PAF lethality in CDl male mice; experiment: PAF lethality assay; assay type: in vivo; conditions: Mus musculus; positive control; oral dosing 45 minutes before i.v. PAF injection; read-out: approximate ED 50
Protocol: To evaluate the compounds of the formula (I) in vivo, they are tested by the so-called PAF lethality assay procedure:
Mice: CDl males, all approximately the same weight (approximately 26 grams), 12 per group.
Vehicle for oral drug dosing: EES (5% ethanol, 5% emulphor, 90% saline). Stored at room temperature.
Drugs: For routine screening at 50 mg/kg, 20 mg drug is dissolved in 4 ml EES, using sonication in a sonicator bath or grinding in a Ten Broeck grinder to dissolve drug if necessary. If solubility is still a problem, the drug is used as a suspension.
Vehicle for i.v. Injection: Saline with 2.5 mg/ml Bovine Serum Albumin (BSA, Sigma #A4378) and 0.05 mg/ml Propranolol (Sigma #PO884). Prepared fresh daily and kept at room temperature.
Platelet Activating Factor (PAF): A […] stock solution is prepared by dissolving 1 mg PAF (Calbiochem #429460) in 0.18 ml ethanol. This is stored at -20° C. and is diluted in vehicle (see above) the day of use. The concentration of PAF used is calibrated so that when injected at 0.1 ml/10 grams body weight, it will kill approximately 80% of untreated controls. This is usually about […] (a 1 to 2034 dilution from stock). […]
Method: 45 minutes before PAF injection, mice are treated orally with drug using 0.1 ml/10 grams body weight. […] Results are expressed as percent mortality as compared to controls. […]

## CCCCCCCCCCCCCCCCOCC(COP(=O)([O-])OCC[N+](C)(C)C)OC(C)=O (centres unmarked) [Example 3H-PAF]
[1]
  Kd: 0.83 nM

## O=C1CCN(c2ccccc2)N1 [Phenidone]
[2]
  ED50: ~25 mg/kg
